Measured values: publication PMC9382030, “A mechanism for exocyst-mediated tethering via Arf6 and PIP5K1C-driven phosphoinositide conversion” (Current biology : CB, 2022)

Legend:
Assay in all cases: membrane-coated bead recruitment, confocal fluorescence, single-site fit
Assay type in all cases: binding
Settings in all cases: apparent affinity in protein concentration; 5 mol% PI(4,5)P2, 85% POPC, 10% phosphatidylserine on silica beads; room temperature, 30 min; 20 mM HEPES, 150 mM NaCl; read-out: KD,relative
exocyst holocomplex = target: T1, exocyst holocomplex (Homo sapiens, UniProt Q9NV70+Q9UPT5)
T1 construct: gene EXOC1; Sf9 baculovirus; hetero-octamer; 6xHis-mNeonGreen-Exoc6 (tag kept), 6xHis-MBP on Exoc5 cut with HRV3C, other subunits untagged; with Exocyst complex component 2; Exocyst complex component 3; Exocyst complex component 4; Exocyst complex component 5; Exocyst complex component 6; Exocyst complex component 8

[1] = target: T2, exocyst subcomplex-1 (Exoc1:2:3:4) (Homo sapiens, UniProt Q9NV70)
T2 construct: Sf9 baculovirus; heterotetramer; 6xHis-mNeonGreen-Exoc4 (tag kept), 6xHis-MBP on Exoc1 cut with HRV3C, Exoc2 and Exoc3 untagged; PH domain of Exoc1 is the known PI(4,5)P2 site; with Exocyst complex component 2; Exocyst complex component 3; Exocyst complex component 4

[2] = target: T3, exocyst subcomplex-2 (Exoc5:6:7:8) (Homo sapiens, UniProt Q9UPT5)
T3 construct: gene EXOC7; Sf9 baculovirus; heterotetramer; with Exocyst complex component 5; Exocyst complex component 6; Exocyst complex component 8
T3 sequence (Q9UPT5 whole entry): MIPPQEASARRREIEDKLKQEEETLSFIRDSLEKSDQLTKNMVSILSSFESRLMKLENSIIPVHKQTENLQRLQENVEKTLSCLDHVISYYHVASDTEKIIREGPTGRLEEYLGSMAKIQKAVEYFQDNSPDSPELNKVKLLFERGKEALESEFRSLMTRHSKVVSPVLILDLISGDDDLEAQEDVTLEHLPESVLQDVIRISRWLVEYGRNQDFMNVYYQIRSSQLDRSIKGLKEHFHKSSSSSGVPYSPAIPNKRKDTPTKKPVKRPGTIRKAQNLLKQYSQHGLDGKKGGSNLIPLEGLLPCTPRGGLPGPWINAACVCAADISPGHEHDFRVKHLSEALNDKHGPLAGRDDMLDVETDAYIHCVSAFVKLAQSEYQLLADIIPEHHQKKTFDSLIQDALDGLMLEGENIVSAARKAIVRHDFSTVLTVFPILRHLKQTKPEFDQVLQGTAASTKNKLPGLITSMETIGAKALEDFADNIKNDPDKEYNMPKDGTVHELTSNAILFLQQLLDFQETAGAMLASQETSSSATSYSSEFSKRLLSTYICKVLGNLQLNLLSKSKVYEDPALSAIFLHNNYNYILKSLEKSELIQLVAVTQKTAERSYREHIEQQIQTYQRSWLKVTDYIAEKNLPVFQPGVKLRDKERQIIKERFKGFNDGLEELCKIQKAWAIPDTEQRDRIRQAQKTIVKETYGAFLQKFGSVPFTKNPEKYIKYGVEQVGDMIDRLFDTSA
T3 sequence (O00471 2-708 partner): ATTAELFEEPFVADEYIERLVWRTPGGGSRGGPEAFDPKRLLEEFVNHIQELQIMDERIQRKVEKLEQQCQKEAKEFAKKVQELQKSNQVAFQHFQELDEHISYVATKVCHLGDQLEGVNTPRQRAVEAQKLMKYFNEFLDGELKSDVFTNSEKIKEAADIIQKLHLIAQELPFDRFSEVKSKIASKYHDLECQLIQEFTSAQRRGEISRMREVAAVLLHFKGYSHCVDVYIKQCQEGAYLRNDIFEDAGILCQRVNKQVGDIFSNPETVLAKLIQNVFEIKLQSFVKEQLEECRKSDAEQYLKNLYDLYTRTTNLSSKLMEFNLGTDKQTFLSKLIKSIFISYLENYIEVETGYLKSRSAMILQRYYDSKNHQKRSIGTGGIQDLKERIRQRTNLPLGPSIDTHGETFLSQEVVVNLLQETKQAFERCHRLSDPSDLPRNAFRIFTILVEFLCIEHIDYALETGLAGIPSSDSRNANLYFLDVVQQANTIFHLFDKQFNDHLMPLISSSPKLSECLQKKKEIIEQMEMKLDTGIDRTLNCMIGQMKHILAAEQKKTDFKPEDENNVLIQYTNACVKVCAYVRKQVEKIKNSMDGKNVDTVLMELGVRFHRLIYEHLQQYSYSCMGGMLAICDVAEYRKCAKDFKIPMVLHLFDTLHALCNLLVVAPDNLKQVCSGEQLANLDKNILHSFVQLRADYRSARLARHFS
T3 sequence (Q8TAG9 whole entry partner): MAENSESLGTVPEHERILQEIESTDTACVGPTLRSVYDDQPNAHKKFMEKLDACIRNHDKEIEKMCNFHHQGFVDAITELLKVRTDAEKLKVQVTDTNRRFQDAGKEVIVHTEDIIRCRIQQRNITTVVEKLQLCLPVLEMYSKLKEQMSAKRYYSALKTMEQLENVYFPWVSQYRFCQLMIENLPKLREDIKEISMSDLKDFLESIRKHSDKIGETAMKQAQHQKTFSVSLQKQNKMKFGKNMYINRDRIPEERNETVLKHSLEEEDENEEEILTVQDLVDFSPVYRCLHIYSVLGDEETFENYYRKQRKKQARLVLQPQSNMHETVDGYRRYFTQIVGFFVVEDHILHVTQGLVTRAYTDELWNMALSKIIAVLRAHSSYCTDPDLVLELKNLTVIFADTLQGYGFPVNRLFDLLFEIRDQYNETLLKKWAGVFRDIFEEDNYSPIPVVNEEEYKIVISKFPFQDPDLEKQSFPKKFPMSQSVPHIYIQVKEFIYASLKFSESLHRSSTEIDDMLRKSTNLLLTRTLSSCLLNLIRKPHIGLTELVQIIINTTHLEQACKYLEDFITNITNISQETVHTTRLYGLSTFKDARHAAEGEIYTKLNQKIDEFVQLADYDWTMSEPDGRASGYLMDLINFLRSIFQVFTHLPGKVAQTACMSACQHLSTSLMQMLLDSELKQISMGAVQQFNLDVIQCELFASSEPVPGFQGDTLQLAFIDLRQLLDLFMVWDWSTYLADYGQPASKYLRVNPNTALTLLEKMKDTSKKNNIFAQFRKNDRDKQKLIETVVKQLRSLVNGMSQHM
T3 sequence (Q8IYI6 whole entry partner): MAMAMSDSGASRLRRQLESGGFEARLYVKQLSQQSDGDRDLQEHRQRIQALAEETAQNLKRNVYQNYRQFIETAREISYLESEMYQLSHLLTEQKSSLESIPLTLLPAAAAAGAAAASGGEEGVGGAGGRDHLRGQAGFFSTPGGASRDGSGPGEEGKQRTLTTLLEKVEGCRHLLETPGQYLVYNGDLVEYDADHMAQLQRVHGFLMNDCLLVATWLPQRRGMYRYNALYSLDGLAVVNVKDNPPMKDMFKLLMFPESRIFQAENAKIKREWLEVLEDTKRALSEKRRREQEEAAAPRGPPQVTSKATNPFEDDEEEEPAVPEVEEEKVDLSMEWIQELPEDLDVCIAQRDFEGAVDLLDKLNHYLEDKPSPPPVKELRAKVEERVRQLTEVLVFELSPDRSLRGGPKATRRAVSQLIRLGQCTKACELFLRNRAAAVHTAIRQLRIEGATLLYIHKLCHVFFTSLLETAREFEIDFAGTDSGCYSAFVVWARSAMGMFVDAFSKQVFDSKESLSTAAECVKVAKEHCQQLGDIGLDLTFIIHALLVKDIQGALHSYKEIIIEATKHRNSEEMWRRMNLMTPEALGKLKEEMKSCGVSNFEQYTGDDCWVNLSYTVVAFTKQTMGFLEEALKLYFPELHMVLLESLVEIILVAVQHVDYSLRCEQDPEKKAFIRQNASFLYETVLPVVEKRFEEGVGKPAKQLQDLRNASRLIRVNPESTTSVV

CCCCCCCCCCCCCCCC(=O)OC[C@H](COP(=O)(O)O[C@@H]1[C@H](O)[C@H](O)[C@@H](OP(=O)(O)O)[C@H](OP(=O)(O)O)[C@H]1O)OC(=O)CCCCCCCCCCCCCCC [PI(4,5)P2]
Kd (exocyst holocomplex): 99.4 nM | Kd [1]: 36.1 nM | Kd [2]: 38.5 nM
